Test results reported in US20130203846A1, “PHENYL CARBAMATE COMPOUNDS FOR USE IN PREVENTING OR TREATING ALS” (Bio-Pharm Solutions Co., Ltd., priority 2011, published 2013).
Marks after values point to notes of the source that are not given here.

What was measured:
Type in all cases: in vivo, mouse
male ICR mice = experiment: MES (maximal electroshock seizure) test, mice; conditions: for ED50: Mus musculus, oral, at peak time
Description: The obtained results are shown as mean±sem. The difference between the groups was statistically analyzed by ANOVA, and then, further examined by Dunnett's test or Bonferroni test. If p is less than 0.05, it was determined that the difference between the groups had statistical significance.

male mice (ICR) [1] = experiment: Muscle relaxation: grip strength test (forelimbs); conditions: i.p., 120 mg/kg administered
Description: (§1) For testing, male mice (ICR) were purchased from ORIENT BIO INC. (Korea), divided into several groups with 6 mice in each group, and were adapted for 4-5 days. The mice having the weight ranging from 19 g to 26 g were employed for the test. The pharmacological effect of the test compounds on muscle relaxation was evaluated by Rotarod test, grip strength test, and muscular force (wire hang) test. All mice were adapted to the test environment at one hour before starting the tests. The pharmacological effects of all the test compounds were evaluated by administration through peritoneal cavity of the mice (10 ul/g, bw).
A grip strength test using the test animals' forelimbs was performed using an instrument equipped with triangle ring and designed so as to easily grip with the forelimbs of experimental animals, manufactured from Ugo Basile Inc. (Ugo Basile, Mode147106, Italy). […] The mouse was made to grip the rod with its forelimbs, and its tail was pulled, where the force at which the mouse detached from the rod was recorded. […] This experimentation was conducted according to the method described in the reference, ‘Nevins et al. (1993) Quantitative grip strength assessment as a means of evaluating muscle relaxation in mice. […]
(§2) The results of muscle relaxation activity of the phenyl carbamate compounds measured in above Experimental Examples 1.2 to 1.4 are shown in following Table 3.

male mice (ICR) [2] = experiment: Muscle relaxation: wire hang test; conditions: i.p., 100 mg/kg administered
Description: as §1
This experimentation was conducted using a metal wire of 30 cm in length, which was suspended between two pillars at a height of about 40 cm from the bottom covered with a soft pad. […] Each mouse was made to grip the wire using two forelimbs, and the elapse time before the mouse fell off from the wire to the pad on the bottom was recorded in seconds. Each mouse was given 5 opportunities for this test at an interval of 2 minutes period. The highest 3 records among the test opportunities were selected and the mean value was used as the test result. […]
as §2

[3] = tested on: mice expressing mutated human SOD1-G93A transgene; experiment: Clinical scoring and disease onset of ALS transgenic mice; conditions: TG G93A SOD1 mice
Description: Altogether 80 male and female mice expressing mutated human SOD1-G93A transgene (heterozygous TgN-SOD1-G93A-1Gur; Gurney et al. (1994), Science 264, 1772. 1775) and 15 of their wild type littermates were used for the experiments. […] PCR was used to genotype the mice before the start of the experiments.
The animals were grouped as follows: • <Non-transgenic male mice> • Group 1: 15 WT mice treated with vehicle (30% (w/v) polyethyleneclycol 400 (PEG400), once a day, p.o.) starting at 60 days of age and continuing until end-point • <Transgenic G93A SOD1 male mice: ALS-transgenic mice> • Group 2: 20 transgenic mice treated with vehicle (30% (w/v) polyethyleneclycol 400 (PEG400), once a day, p.o.) staring at 60 days of age and continuing until end-point • Group 3: 20 transgenic mice treated with a drug (Compound 1) at dose of 3 mg/kg (once a day, p.o.) staring at 60 days of age and continuing until end-point • Group 4: 20 transgenic mice treated with Compound 1 at dose of 10 mg/kg (once a day, p.o.) staring at 60 days of age and continuing until end-point • Group 5: 20 transgenic mice treated with Compound 1 at dose of 50 mg/kg (once a day, p.o.) staring at 60 days of age and continuing until end-point
Treatment with drug (Compound 1) was started at the age of 60 days and continued until the mice reached 150 days of age. The drug was administered p.o. once a day between 8-12 am. The drug solubilized in 30% (w/v) polyethyleneclycol 400 (PEG400), and the obtained solution was briefly vortexed and sonicated at RT (room temperature) for 20 minutes. Treatment solution of the drug was prepared fresh every day. […]
The earliest clinical signs were tremor and shaking of their limbs when the mice are suspended briefly in the air by their tails. […] Animals were scored by lifting them gently by the base of their tails and observing them for tremors, stiffness and their ability to extend their limbs. […]
Onset of disease for each mouse was recorded when they reach a disease stage 4.

[4] = tested on: mice expressing mutated human SOD1-G93A transgene; experiment: Open field test of ALS transgenic mice; conditions: TG G93A SOD1 mice; 3, 10, 50 mg/kg p.o. once a day; baseline, day 90, day 110
Description: (§3) Altogether 80 male and female mice expressing mutated human SOD1-G93A transgene (heterozygous TgN-SOD1-G93A-1Gur; Gurney et al. (1994), Science 264, 1772. 1775) and 15 of their wild type littermates were used for the experiments. […] PCR was used to genotype the mice before the start of the experiments. […]
Open field test measurements were performed before the dosing is stated (baseline) and around day 90 (13th age week) and day 110 (16th age week). […] Mice were placed in the center of the chamber and their behaviors were recorded for 10 minutes. The following parameters were recorded: distance moved.

[5] = tested on: mice expressing mutated human SOD1-G93A transgene; experiment: Body weight of ALS transgenic mice; conditions: TG G93A SOD1 mice; 3, 10, 50 mg/kg p.o. once a day; compared with WT group
Description: as §3
Since weight loss has proven to correlate well with disease development and is easily scored co-jointly with disease stage, the mice were weighted once-a-week at the age of 60 days to 90 days and three times a week after they reach the age of 91 days (13 weeks).

[6] = tested on: mice expressing mutated human SOD1-G93A transgene; experiment: Survival of ALS transgenic mice; conditions: TG G93A SOD1 mice
[7] = group treated with 10 mg/kg p.o. once a day

| SMILES | MES test (po) Peak Time (male ICR mice) [h] | ED50 (male ICR mice) [mg/kg] | also measured |
| --- | --- | --- | --- |
| C[C@@H](OC(N)=O)[C@H](O)c1ccccc1Cl [Compound 2, 1-(2-chlorophenyl)-(R)-1-hydroxypropyl-(R)-2-carbamate] | 0.25 |  |  |
| CC(OC(N)=O)C(O)c1ccccc1Cl (racemic) [Compound 3, 1-(2-chlorophenyl)-1-hydroxypropyl-2-carbamate] | 2 |  |  |
| C[C@@H](OC(N)=O)[C@H](O)c1ccccc1F [Compound 64, 1-(2-fluorophenyl)-(R)-1-hydroxypropyl-(R)-2-carbamate] |  |  | Grip strength: effect (%) compared to that of control treated with vehicle only (male mice (ICR) [1]): 120 ^a (35.4%); Wire hang: effect (%) compared to that of control treated with vehicle only (male mice (ICR) [2]): 100 ^a (30.8%) |
| C[C@H](OC(N)=O)[C@@H](O)c1ccc(Cl)cc1Cl [Compound 36, 1-(2,4-dichlorophenyl)-(S)-1-hydroxypropyl-(S)-2-carbamate] |  | 82.8 |  |
| C[C@H](OC(N)=O)[C@@H](O)c1ccccc1Cl [Compound 1, 1-(2-chlorophenyl)-(S)-1-hydroxypropyl-(S)-2-carbamate] | 2 |  | rate (%) of survivor according to disease onset time (FIG. 2) ([3]; 3, 10, 50 mg/kg p.o. once a day, onset = disease stage 4): delay the disease onset; clinical score of each group (FIG. 4) ([3]; 3, 10, 50 mg/kg p.o. once a day, scale 1 to 5, compared to TG vehicle group): clinical scores were increased by administration of the drug in the dose-dependent manner; effect to delay the disease onset (FIG. 2) [3, 7]: especially remarkable; distance moved, open field test (FIG. 5) [4]: some differences between treatments group of transgenic mice; body weight of each group (FIG. 3) [5]: body weight loss compared with WT group was decrease by administration of the drug in the dose-dependent manner; rate (%) of survivor according to survival time (FIG. 1) ([6]; 3, 10, 50 mg/kg p.o. once a day from 60 days of age, early stage of ALS): survival time is extended; effect to increase the survival rate at early stage of ALS (FIG. 1) [6, 7]: especially remarkable |
| C[C@H](OC(N)=O)[C@@H](O)c1cccc(Cl)c1Cl [Compound 38, 1-(2,3-dichlorophenyl)-(S)-1-hydroxypropyl-(S)-2-carbamate] | 2 | 91.4 |  |
| CC(C)[C@H](OC(N)=O)[C@@H](O)c1ccccc1Cl [Compound 9, 1-(2-chlorophenyl)-(S)-1-hydroxy-3-methyl-butyl-(S)-2-carbamate] | 0.5 | 67.1 |  |
| CC[C@H](OC(N)=O)[C@@H](O)c1ccccc1Cl [Compound 6, 1-(2-chlorophenyl)-(S)-1-hydroxybutyl-(S)-2-carbamate] | 1 | 22.2 |  |
| CC[C@H](OC(N)=O)[C@@H](O)c1c(Cl)cccc1Cl [Compound 40, 1-(2,6-dichlorophenyl)-(S)-1-hydroxybutyl-(S)-2-carbamate] |  | 46.9 |  |
| C[C@@H](OC(N)=O)[C@H](O)c1c(Cl)cccc1Cl [Compound 46, 1-(2,6-dichlorophenyl)-(R)-1-hydroxypropyl-(R)-2-carbamate] | 1 | 35.2 |  |
| CC[C@H](OC(N)=O)[C@@H](O)c1ccc(Cl)cc1Cl [Compound 39, 1-(2,4-dichlorophenyl)-(S)-1-hydroxybutyl-(S)-2-carbamate] | 1 | 41.2 |  |
| C[C@H](OC(N)=O)[C@@H](O)c1c(Cl)cccc1Cl [Compound 37, 1-(2,6-dichlorophenyl)-(S)-1-hydroxypropyl-(S)-2-carbamate] | 0.25 |  |  |
| CC(C)[C@H](OC(N)=O)[C@@H](O)c1c(Cl)cccc1Cl [Compound 42, 1-(2,6-dichlorophenyl)-(S)-1-hydroxy-3-methyl-butyl-(S)-2-carbamate] | 0.5 | 35.2 |  |
| C[C@H](OC(N)=O)[C@H](O)c1ccccc1Cl [Compound 5, 1-(2-chlorophenyl)-(R)-1-hydroxypropyl-(S)-2-carbamate] | 0.5 |  |  |
